Values of other authors, collected in paper PMC6851657 (Clinical Pharmacology and Therapeutics, 2019).

Conditions: ref fluconazole SimCYP compound file V16; cited from earlier work

Compound: OC(Cn1cncn1)(Cn1cncn1)c1ccc(F)cc1F [Fluconazole, fluconazole]
- CL following i.v. administration: 1.01 L/h
- In vivo renal clearance in a 20–30 year healthy man: 0.7 L/h
- Volume of distribution at steady state: 0.748 L/kg
